The numbers were not newly measured in patent US8912356B2, “DCC mediated coupling for halofenate manufacture” (Metabolex, Inc., priority 2013, dated 2014), which cites them from elsewhere.

The conditions of data set [1]: administration of racemic mixture.
Data set [2] concerns the target cytochrome P450 2C9 (Homo sapiens, UniProt P11712). Conditions: relative to (+)-enantiomer of halofenic acid.

Chain of cytochrome P450 2C9 (P11712 whole entry): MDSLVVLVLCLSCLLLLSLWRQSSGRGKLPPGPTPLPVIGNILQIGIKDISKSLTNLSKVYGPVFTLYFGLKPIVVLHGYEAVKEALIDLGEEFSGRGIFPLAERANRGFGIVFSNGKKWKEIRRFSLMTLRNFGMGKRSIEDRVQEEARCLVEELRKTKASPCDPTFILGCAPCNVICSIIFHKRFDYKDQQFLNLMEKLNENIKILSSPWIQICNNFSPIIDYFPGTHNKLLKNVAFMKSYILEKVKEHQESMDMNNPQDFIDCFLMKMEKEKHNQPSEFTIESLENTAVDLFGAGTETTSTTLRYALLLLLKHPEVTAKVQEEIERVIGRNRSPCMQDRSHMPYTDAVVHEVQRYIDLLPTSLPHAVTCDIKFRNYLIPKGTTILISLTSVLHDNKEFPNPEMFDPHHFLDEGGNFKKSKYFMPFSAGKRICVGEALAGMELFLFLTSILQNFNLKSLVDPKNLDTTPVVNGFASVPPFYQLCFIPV

Take `CC(=O)NCCOC(=O)C(Oc1cccc(C(F)(F)F)c1)c1ccc(Cl)cc1` (racemic) [halofenate, 2-acetamidoethyl (4-chlorophenyl) (3-trifluoromethylphenoxy)acetate]: in data set [1], the plasma glucose result was “lowering”, the serum uric acid entry is reported as “lowering” and the triglycerides result is listed as “lowering”. Further, the “potential adverse drug-drug interactions” value (racemic halofenate, with Coumadin) is given as “difficulties controlling anticoagulation with Coumadin™”. For the same compound, the adverse effects entry (racemic mixture) was “nausea, gastrointestinal ulcers, and gastrointestinal bleeding”.
Take `O=C(O)[C@H](Oc1cccc(C(F)(F)F)c1)c1ccc(Cl)cc1` [(−)-enantiomer of halofenic acid, (−)-4-chloro-α-(3-trifluoromethylphenoxy)phenylacetic acid]: in data set [2], the “ability to inhibit cytochrome P450 2C9 compared to the (+)-enantiomer” value is recorded as “about twenty-fold less active”.
